Experimental data as given in patent publication US10829520B2, “Beta-hairpin peptidomimetics” (POLYPHOR AG, priority 2015, dated 2020).
*1 amine or outer side, *2 acyl side, *3 side chain or, on linkers, in order; H or OH if unused. Where a SMILES comes first, the peptide text is derived from it. Bridges are numbered along the chain shown (N, C = ends). Roman numbers before positions name the chains, in order. [ ]: non-standard residue; d: D form. The star is where a group is joined. NαAmidinoTrp = N=C(N)N[C@@H](Cc1c[nH]c2ccccc12)C(=O)*; X3 = CNCC[C@H](N[*:1])C(=O)[*:2]; Pen = CC(C)(S)[C@H](N)C(=O)O; Tle = CC(C)(C)[C@H](N)C(=O)O; dDab = NCC[C@@H](N)C(=O)O; Nle = CCCC[C@H](N)C(=O)O; Orn = NCCC[C@H](N)C(=O)O; Dab = NCC[C@H](N)C(=O)O; Dap = NC[C@H](N)C(=O)O; Sar = CNCC(=O)O

How the values were obtained:
Assay type in all cases: cell-based
[1] = test system: Klebsiella pneumoniae SSI #3010; conditions: SSI #3010
Experimental: (§1) Lyophilized peptides were weighed on a Microbalance (Mettler MT5) and dissolved in sterile water to a final concentration of 1 mg/mL. Stock solutions were kept at +4° C., light protected.
(§2) The in vitro antimicrobial activities of the peptides were determined in 96-well plates (Greiner, polystyrene) by the standard CLSI broth microdilution method (Clinical and Laboratory Standards Institute 2014. Performance standards for antimicrobial susceptibility testing, 24th informational supplement. Approved standard CLSI M100-S24; Clinical and Laboratory Standards Institute, Wayne, Pa.). Inocula of the microorganisms were diluted into Mueller-Hinton II (MH-cation adjusted) broth and compared with a 0.5 McFarland standard to give appr. 10^6 colony forming units (CFU)/mL. Aliquots (90 μL) of inoculate were added to 10 μL of MH-II broth+P-80 (Polysorbate 80, 0.002% final concentration, v/v) containing the peptide in serial two-fold dilutions. The following microorganisms were used to determine antibiotic activity of the peptides: Escherichia coli ATCC 25922, Klebsiella pneumoniae SSI #3010^a), Acinetobacter baumannii DSM 30008, Pseudomonas aeruginosa ATCC 27853 and the clinical isolates Escherichia coli 926415^b), Klebsiella pneumoniae 968733^b) and Acinetobacter baumannii 872842^b). Antimicrobial activities of the peptides were expressed as the minimal inhibitory concentration (MIC) in μg/mL at which no visible growth was observed after 18-20 hours of incubation at 35° C. ^a) Obtained from Statens Serum Institut (SSI), Copenhagen, Denmark^b) Obtained from International Health Management Associates, Inc. (IHMA Europe Sàrl), Epalinges, Switzerland

[2] = test system: Pseudomonas aeruginosa ATCC 27853; conditions: ATCC 27853
Experimental: as §1, §2

[3] = test system: Escherichia coli ATCC 25922; conditions: ATCC 25922
Experimental: as §1, §2

[4] = test system: Acinetobacter baumannii DSM 30008; conditions: DSM 30008
Experimental: as §1, §2

[5] = test system: human red blood cells (hRBC); assay: Hemolysis of human red blood cells; conditions: red cells of human, 1 h
Experimental: as §1
The peptides were tested for their hemolytic activity against human red blood cells (hRBC). Fresh hRBC were washed three times with phosphate buffered saline (PBS) and centrifuged for 10 min at 2000×g. Compounds (100 μg/mL) were incubated with 20% hRBC (v/v) for 1 h at 37° C. and shaking at 300 rpm. The final erythrocyte concentration was approximately 0.9×10^9 cells/mL. A value of 0% and 100% cell lyses, respectively, was determined by incubation of hRBC in the presence of PBS containing 0.001% acetic acid and 2.5% Triton X-100 in H2O, respectively. The samples were centrifuged, the supernatants were 8-fold diluted in PBS buffer and the optical densities (OD) were measured at 540 nm. The 100% lyses value (OD540H2O) gave an OD540 of approximately 0.5-1.0.
Percent hemolysis was calculated as follows: (OD540peptide/OD540H2O)×100%.

SMILES	Klebsiella pneumoniae SSI #3010 MIC [1]	Pseudomonas aeruginosa ATCC 27853 MIC [2]	Escherichia coli ATCC 25922 MIC [3]	Acinetobacter baumannii DSM 30008 MIC [4]	Hemolysis at 100 μg/mL [5]; 100	Hemolysis at 100 μg/mL ([5]; 100 μg/mL)
CCCC[C@@H]1NC(=O)[C@@H]2CCCN2C(=O)[C@H]2CCCN2C(=O)[C@H](CO)NC(=O)[C@H](C)NC(=O)[C@H](C(C)(C)C)NC(=O)[C@H](CCC(=O)N[C@@H](CCN)C(=O)N[C@H](C(=O)N[C@@H](CCN)C(=O)N[C@H]2CCNC(=O)[C@H]([C@@H](C)O)NC(=O)[C@H](CCN)NC(=O)[C@H](CCN)NC(=O)[C@H](CC(C)C)NC(=O)[C@@H](Cc3ccccc3)NC(=O)[C@H](CCN)NC2=O)[C@@H](C)O)NC(=O)[C@H](Cc2c[nH]c3ccccc23)NC(=O)[C@H](CCN)NC(=O)[C@@H](CCN)NC(=O)[C@H](CCCN)NC(=O)[C@H](CCN)NC(=O)[C@H](Cc2ccc(O)cc2)NC(=O)[C@H](CO)NC1=O [Ex. 11] (I: cyclo(WE[Tle]AS[dP]P[Nle]SY[Dab][Orn][dDab][Dab]) / II: [Dab]T[Dab][Dab][Dab][dF]L[Dab][Dab]T; amide I:2-II:N; lactam II:4-II:C)	1 µg/mL	0.5 µg/mL	2 µg/mL	1 µg/mL	1%	–
CC(C)C[C@@H]1NC(=O)[C@@H](CC(C)C)NC(=O)[C@H](CCN)NC(=O)[C@@H](NC(=O)[C@H](CCN)NC(=O)[C@@H](NC(=O)[C@H](CCN)NC(=O)CNC(=O)[C@H]2NC(=O)[C@H](Cc3ccc(O)cc3)NC(=O)[C@H](CO)NC(=O)[C@H](CC(C)C)NC(=O)[C@@H]3CCCN3C(=O)[C@H]3CCCN3C(=O)[C@H](CO)NC(=O)[C@H](C)NC(=O)[C@H](C(C)C)NC(=O)[C@@H](NC(=O)[C@H](Cc3c[nH]c4ccccc34)NC(=N)N)C(C)(C)SSC2(C)C)[C@@H](C)O)CCNC(=O)[C@H]([C@@H](C)O)NC(=O)[C@H](CCN)NC(=O)[C@H](CCN)NC1=O [Ex. 174] (NαAmidinoTrp-[Pen]VAS[dP]PLSY[Pen]G[Dab]T[Dab][Dab][Dab][dL]L[Dab][Dab]T; disulfide 1-10; lactam 15-C)	0.5 µg/mL	2 µg/mL	0.25 µg/mL	0.5 µg/mL	–	1%
CCCC[C@@H]1NC(=O)[C@@H]2CCCN2C(=O)[C@H]2CCCN2C(=O)[C@H](CO)NC(=O)[C@H](C)NC(=O)[C@H](C(C)(C)C)NC(=O)[C@H](CCN)NC(=O)[C@H](Cc2c[nH]c3ccccc23)NC(=O)[C@H](CCN)NC(=O)[C@@H](CCN)NC(=O)[C@H](CC(=O)N[C@H]2CCNC(=O)[C@H]([C@@H](C)O)NC(=O)[C@H](CCN)NC(=O)[C@H](CCN)NC(=O)[C@H](CC(C)C)NC(=O)[C@@H](Cc3ccccc3)NC(=O)[C@H](CCN)NC2=O)NC(=O)[C@H](CCN)NC(=O)[C@H](Cc2ccc(O)cc2)NC(=O)[C@H](CO)NC1=O [Ex. 64] (I: cyclo([Nle]SY[Dab]D[dDab][Dab]W[Dab][Tle]AS[dP]P) / II: [Dab][Dab][dF]L[Dab][Dab]T; amide I:5-II:N; lactam II:1-II:C)	2 µg/mL	4 µg/mL	2 µg/mL	1 µg/mL	<1%	–
CCCC[C@@H]1NC(=O)[C@@H]2CCCN2C(=O)[C@H]2CCCN2C(=O)[C@H](CO)NC(=O)[C@H](C)NC(=O)[C@H](C(C)(C)C)NC(=O)[C@H](CCN)NC(=O)[C@H](Cc2c[nH]c3ccccc23)NC(=O)[C@H](CCN)NC(=O)[C@@H](CCN)NC(=O)[C@H](CCC(=O)N[C@@H](CCNC)C(=O)N[C@H]2CCNC(=O)[C@H]([C@@H](C)O)NC(=O)[C@H](CCN)NC(=O)[C@H](CCN)NC(=O)[C@H](CC(C)C)NC(=O)[C@@H](Cc3ccccc3)NC(=O)[C@H](CCN)NC2=O)NC(=O)[C@H](CCN)NC(=O)[C@H](Cc2ccc(O)cc2)NC(=O)[C@H](CO)NC1=O [Ex. 68] (I: cyclo(W[Dab][Tle]AS[dP]P[Nle]SY[Dab]E[dDab][Dab]) / II: [X3][Dab][Dab][dF]L[Dab][Dab]T; amide I:12-II:N; lactam II:2-II:C)	2 µg/mL	0.5 µg/mL	2 µg/mL	2 µg/mL	<1%	–
CCCC[C@@H]1NC(=O)[C@@H]2CCCN2C(=O)[C@H]2CCCN2C(=O)[C@H](CO)NC(=O)[C@H](C)NC(=O)[C@H](C(C)(C)C)NC(=O)[C@@H](NC(=O)[C@H](Cc2c[nH]c3ccccc23)NC(C)=O)CSSC[C@@H](C(=O)N[C@@H](CNC(=O)[C@@H](N)CCC(=O)O)C(=O)N[C@H](C(=O)N[C@@H](CCN)C(=O)N[C@H]2CCNC(=O)[C@H]([C@@H](C)O)NC(=O)[C@H](CCN)NC(=O)[C@H](CCN)NC(=O)[C@H](CC(C)C)NC(=O)[C@@H](Cc3ccccc3)NC(=O)[C@H](CCN)NC2=O)[C@@H](C)O)NC(=O)[C@H](Cc2ccc(O)cc2)NC(=O)[C@H](CO)NC1=O [Ex. 24] (Ac-WC[Tle]AS[dP]P[Nle]SYC[Dap](Glu)T[Dab][Dab][Dab][dF]L[Dab][Dab]T; disulfide 2-11; lactam 15-C)	4 µg/mL	4 µg/mL	2 µg/mL	2 µg/mL	–	1%
CC(C)C[C@@H]1NC(=O)[C@@H](CC(C)C)NC(=O)[C@H](CCN)NC(=O)[C@@H](NC(=O)[C@H](CCN)NC(=O)[C@@H](NC(=O)[C@H](CCN)NC(=O)CN(C)C(=O)[C@@H]2CSSC[C@H](NC(=O)[C@@H](N)Cc3c[nH]c4ccccc34)C(=O)N[C@@H](C(C)C)C(=O)N[C@@H](C)C(=O)N[C@@H](CO)C(=O)N3CCC[C@@H]3C(=O)N3CCC[C@H]3C(=O)N[C@@H](CC(C)C)C(=O)N[C@@H](CO)C(=O)N[C@@H](Cc3ccc(O)cc3)C(=O)N2)[C@@H](C)O)CCNC(=O)[C@@H](CCCNC(=N)N)NC(=O)[C@H](CCN)NC(=O)[C@H](CCN)NC1=O [Ex. 182] (H-WCVAS[dP]PLSYC[Sar][Dab]T[Dab][Dab][Dab][dL]L[Dab][Dab][dR]; disulfide 2-11; lactam 16-C)	0.5 µg/mL	4 µg/mL	0.5 µg/mL	0.75 µg/mL	–	1%
CC(C)C[C@@H]1NC(=O)[C@H](CCCNC(=N)N)NC(=O)[C@@H](CCN)NC(=O)[C@H](C(C)C)NC(=O)[C@@H](NC(=O)[C@H](Cc2ccc(O)cc2)NC(=O)[C@H](CCN)NC(=O)[C@@H](N)Cc2c[nH]c3ccccc23)CSSC[C@@H](C(=O)N[C@@H](Cc2ccc(O)cc2)C(=O)N[C@@H](CCN)C(=O)NCC(=O)N[C@@H](CCN)C(=O)N[C@H](C(=O)N[C@@H](CCN)C(=O)N[C@H]2CCNC(=O)[C@H]([C@@H](C)O)NC(=O)[C@H](CCN)NC(=O)[C@H](CCN)NC(=O)[C@H](CC(C)C)NC(=O)[C@@H](CC(C)C)NC(=O)[C@H](CCN)NC2=O)[C@@H](C)O)NC1=O [Ex. 166] (H-W[Dab]YCV[dDab]RLCY[Dab]G[Dab]T[Dab][Dab][Dab][dL]L[Dab][Dab]T; disulfide 4-9; lactam 16-C)	2 µg/mL	2 µg/mL	2 µg/mL	2 µg/mL	–	3%
CC(C)C[C@@H]1NC(=O)[C@@H](CC(C)C)NC(=O)[C@H](CCN)NC(=O)[C@@H](NC(=O)[C@H](CCN)NC(=O)[C@@H](NC(=O)[C@H](CCN)NC(=O)CN(C)C(=O)[C@@H]2CSSC[C@H](NC(=O)[C@@H](N)Cc3c[nH]c4ccccc34)C(=O)N[C@@H](C(C)C)C(=O)N[C@@H](C)C(=O)N[C@@H](CO)C(=O)N3CCC[C@@H]3C(=O)N3CCC[C@H]3C(=O)N[C@@H](CC(C)C)C(=O)N[C@@H](CO)C(=O)N[C@@H](Cc3ccc(O)cc3)C(=O)N2)[C@@H](C)O)CCNC(=O)[C@H](CCCNC(=N)N)NC(=O)[C@H](CCN)NC(=O)[C@H](CCN)NC1=O [Ex. 181] (H-WCVAS[dP]PLSYC[Sar][Dab]T[Dab][Dab][Dab][dL]L[Dab][Dab]R; disulfide 2-11; lactam 16-C)	0.125 µg/mL	0.5 µg/mL	0.0625 µg/mL	0.125 µg/mL	–	<1%
